The compounds below were run against T1, human androgen receptor (Homo sapiens, UniProt P10275) (assay: Androgenic activity (potency) in vitro bioassay, CHO-AR-pMMTV-LUC 1G12-A5-CA cells, luciferase reporter). Settings: CHO cells stably transfected with human androgen receptor and MMTV-luciferase reporter; in the presence of 0.1 μmol/l onapristone; potencies expressed as percentage of DHT activity (maximal efficacy with 100 nmol/l DHT set as 100%).
T1 construct: expressed in transfected cells; host or cells: Chinese hamster ovary (CHO) cells, line CHO-AR-pMMTV-LUC 1G12-A5-CA
T1 sequence (P10275 1-920): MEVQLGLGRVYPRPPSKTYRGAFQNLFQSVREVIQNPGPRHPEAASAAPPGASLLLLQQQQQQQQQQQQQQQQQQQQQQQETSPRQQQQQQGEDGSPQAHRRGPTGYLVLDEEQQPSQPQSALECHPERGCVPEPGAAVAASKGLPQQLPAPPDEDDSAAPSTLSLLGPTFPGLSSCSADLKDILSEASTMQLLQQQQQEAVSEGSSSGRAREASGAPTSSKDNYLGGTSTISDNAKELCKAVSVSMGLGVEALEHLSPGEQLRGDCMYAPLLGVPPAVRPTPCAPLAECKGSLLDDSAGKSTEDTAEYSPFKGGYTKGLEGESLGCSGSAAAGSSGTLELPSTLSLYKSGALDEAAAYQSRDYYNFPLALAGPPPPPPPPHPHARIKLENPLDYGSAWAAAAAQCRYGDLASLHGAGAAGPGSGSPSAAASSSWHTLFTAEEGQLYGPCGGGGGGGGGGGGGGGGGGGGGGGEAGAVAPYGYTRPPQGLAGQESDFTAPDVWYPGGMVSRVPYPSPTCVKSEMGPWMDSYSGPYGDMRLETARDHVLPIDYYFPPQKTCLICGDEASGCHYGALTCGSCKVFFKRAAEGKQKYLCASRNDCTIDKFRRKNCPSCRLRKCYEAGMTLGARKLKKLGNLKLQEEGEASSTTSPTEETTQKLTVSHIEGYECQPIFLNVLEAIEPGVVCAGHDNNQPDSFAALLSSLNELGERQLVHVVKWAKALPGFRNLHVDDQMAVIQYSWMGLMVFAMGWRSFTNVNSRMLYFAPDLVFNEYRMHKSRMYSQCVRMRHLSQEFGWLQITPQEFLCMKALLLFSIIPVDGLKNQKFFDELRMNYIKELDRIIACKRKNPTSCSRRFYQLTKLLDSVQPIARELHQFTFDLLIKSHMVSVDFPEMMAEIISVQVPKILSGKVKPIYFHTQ
Format: cell-based
Procedure: The androgenic activity (potency) of the compounds of the invention was determined in an in vitro bioassay of Chinese hamster ovary (CHO) cells stably transfected with the human androgen receptor expression plasmid and a reporter plasmid in which the MMTV promoter is linked to the luciferase reporter gene. The cell line CHO-AR-pMMTV-LUC 1G12-A5-CA is described in Schoonen et al. (J. Steroid Biochem. Molec. Biol. 2002; 74: 213-222). The androgen receptor activity of compounds was determined in the presence of 0.1 μmol/l onapristone. The maximal efficacy in the presence of 100 nmol/1 DHT was set as 100%. The potencies are expressed as percentage of DHT activity.

Point of comparison: `COCCNc1ccc2c(Sc3ccccc3C#N)cn(Cc3cc(F)cc(F)c3)c2c1` [Example 21i], “Potency (%)” value 6.0%. Against it:
- CC(=O)CNc1ccc2c(Sc3ccccc3[N+](=O)[O-])cn(Cc3cc(F)cc(F)c3)c2c1 [Example 21a, 1-[1-(3,5-Difluoro-benzyl)-3-(2-nitro-phenylsulfanyl)-1H-indol-6-ylamino]-propan-2-one] — higher, 7.2%
- O=[N+]([O-])c1ccccc1Sc1cn(Cc2cc(F)cc(F)c2)c2cc(NCCO)ccc12 [Example 21b, 2-[1-(3,5-Difluoro-benzyl)-3-(2-nitro-phenylsulfanyl)-1H-indol-6-ylamino]-ethanol] — higher, 7.9%
- COCCNc1ccc2c(Sc3ccccc3[N+](=O)[O-])cn(Cc3cc(F)cc(F)c3)c2c1 [Example 21c] — higher, 11.4%
- N#CCNc1ccc2c(Sc3ccccc3[N+](=O)[O-])cn(Cc3ccccn3)c2c1 [Example 21d, [3-(2-Nitro-phenylsulfanyl)-1-pyridin-2-ylmethyl-1H-indol-6-ylamino]-acetonitrile] — higher, 6.7%
- COCCNc1ccc2c(Sc3ccccc3[N+](=O)[O-])cn(Cc3ccccn3)c2c1 [Example 21e, (2-Methoxy-ethyl)-[3-(2-nitro-phenylsulfanyl)-1-pyridin-2-ylmethyl-1H-indol-6-yl]-amine] — higher, 8.3%
- COCCNc1ccc2c(Sc3ccccc3[N+](=O)[O-])cn(Cc3cccnc3)c2c1 [Example 21f, (2-Methoxy-ethyl)-[3-(2-nitro-phenylsulfanyl)-1-pyridin-3-ylmethyl-1H-indol-6-yl]-amine] — higher, 20.9%
- N#CCNc1ccc2c(Sc3ccccc3C#N)cn(Cc3cc(F)cc(F)c3)c2c1 [Example 21g, 2-[6-(Cyanomethyl-amino)-1-(3,5-difluoro-benzyl)-1H-indol-3-ylsulfanyl]-benzonitrile] — higher, 9.2%
- N#Cc1ccccc1Sc1cn(Cc2cc(F)cc(F)c2)c2cc(NCCO)ccc12 [Example 21h] — lower, 2.9%
- N#CCNc1ccc2c(Sc3ccccc3[N+](=O)[O-])cn(Cc3cccnc3)c2c1 [Example 21j, [3-(2-Nitro-phenylsulfanyl)-1-pyridin-3-ylmethyl-1H-indol-6-ylamino]-acetonitrile] — lower, 1.0%
- O=[N+]([O-])c1ccccc1Sc1cn(Cc2cc(F)cc(F)c2)c2cc(NCC(F)(F)F)ccc12 [Example 21k, [1 (3,5-Difluoro-benzyl)-3-(2-nitro-phenylsulfanyl)-1H-indol-6-yl]-(2,2,2-trifluoroethyl)-amine] — lower, 0.6%
- CCCNc1ccc2c(Sc3ccccc3[N+](=O)[O-])cn(Cc3cc(F)cc(F)c3)c2c1 [Example 22a, [1-(3,5-Difluoro-benzyl)-3-(2-nitro-phenylsulfanyl)-1H-indol-6-yl]-propyl-amine] — lower, 2.4%
- C#CCNc1ccc2c(Sc3ccccc3[N+](=O)[O-])cn(Cc3cc(F)cc(F)c3)c2c1 [Example 22b, [1-(3,5-Difluoro-benzyl)-3-(2-nitro-phenylsulfanyl)-1H-indol-6-yl]-prop-2-ynyl-amine] — higher, 27.1%
- C=C(C)CNc1ccc2c(Sc3ccccc3[N+](=O)[O-])cn(Cc3cc(F)cc(F)c3)c2c1 [Example 22c] — lower, 1.2%
- O=[N+]([O-])c1ccccc1Sc1cn(Cc2cc(F)cc(F)c2)c2cc(NCC3CC3)ccc12 [Example 22d] — lower, 0.9%
- COC(=O)CNc1ccc2c(Sc3ccccc3[N+](=O)[O-])cn(Cc3cc(F)cc(F)c3)c2c1 [Example 22e] — lower, 4.0%
- Methyl-[1-(3-meth 1-benzyl-3-(2-nitro-phenylsulfanyl)-1H-indol-6-yl]-amine [Example 5o] — lower, 1.6%

— US7812036B2, “Androgens” (N.V. Organon, priority 2004, dated 2010)
